Source: US12414927B2, “CXCR5 antagonists and methods of treating diseases or disorders using same” (YALE UNIVERSITY, priority 2020, dated 2025)
Entries after “also recorded” stand apart in the source; their conditions may differ.

What was measured:
human CXCR5 [1] = molecular target: T1, human CXCR5 (Homo sapiens, UniProt P32302); experiment: Calcium assay: inhibition of Gaq-mediated Ca2+ flux at an EC80 of CXCL13 agonist; assay type: cell-based; conditions: HEK-293 cells transfected with human CXCR5, in the presence or absence of BSA
T1 construct: expressed in transfected cells; host or cells: HEK-293 (division-arrested, stably expressing)
T1 sequence (P32302 1-372): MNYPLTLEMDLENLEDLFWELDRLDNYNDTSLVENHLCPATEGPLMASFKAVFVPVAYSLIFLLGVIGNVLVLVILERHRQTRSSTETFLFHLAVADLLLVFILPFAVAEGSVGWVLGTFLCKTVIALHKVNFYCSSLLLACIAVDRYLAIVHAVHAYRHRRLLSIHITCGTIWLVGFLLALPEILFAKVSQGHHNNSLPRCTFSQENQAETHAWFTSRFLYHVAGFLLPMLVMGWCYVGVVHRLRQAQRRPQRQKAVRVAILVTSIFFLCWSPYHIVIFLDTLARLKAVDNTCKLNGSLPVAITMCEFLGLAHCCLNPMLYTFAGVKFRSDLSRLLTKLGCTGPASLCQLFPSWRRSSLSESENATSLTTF
Method: FIGS. 1A-1B illustrate inhibition of Gaq-mediated Ca^2+ flux for certain compounds of the disclosure. The assays use HEK cells stably expressing functional human CXCR5 and measure inhibition of Gaq-mediated Ca^2+ flux at an EC80 of CXCL13 agonist. Assays were performed in HBSS buffer (FIG. 1A) and HBSS buffer+1% BSA (FIG. 1B); the compounds were active in the presence of the bovine serum albumin, without significant change in an IC50 value. Compound 1 is 2-(3-methyl-2-(2-methylprop-1-en-1-yl)benzamido)-2,3-dihydro-1H-indene-2-carboxylic acid; Compound 2 is 2-(2-isobutyl-3-methylbenzamido)-2,3-dihydro-1H-indene-2-carboxylic acid.
(§1) These assays were performed in division-arrested HEK-293 cells transfected with human CXCR5. The CXCL13 ligand was used as agonist.
The calcium assay allows homogeneous measurement of intracellular calcium changes caused by activation of G-protein coupled receptors or calcium channels.
For adherent cells, plate 50K to 70K cells/well for a 96 well plate and 12K to 20K cells/well for a 384 well plate the day before the experiment. Add 100 μl/well of cell suspension to 96-well plates or 25 μl/well to 384-well plates, allow cells to attach and grow overnight for 16 to 24 hours in cell culture incubators. Prior to dye loading the plate, examine the cells for confluency and overall health.
1. […]

human CXCR5 [2] = molecular target: T1, human CXCR5; experiment: Cyclic AMP assay: inhibition of Gai-mediated decrease of cAMP at an EC80 of CXCL13; assay type: cell-based; conditions: HEK-293 cells transfected with human CXCR5, in the presence or absence of BSA
Method: FIGS. 2A-2B illustrate inhibition of Gat-mediated decrease of cAMP for certain compounds of the disclosure. The assays use HEK cells stably expressing functional human CXCR5 and measure inhibition of Gat-mediated decrease of cAMP at an EC80 of CXCL13. Assays were performed in HBSS buffer (FIG. 2A) and HBSS buffer+1% BSA (FIG. 2B); the compounds were active in the presence of the bovine serum albumin, without significant change in an IC50 value.
as §1

Raji cell line = experiment: Proliferation of CXCR5-expressing Burkitt's B-cell lymphoma cell line over 7 days; assay type: cell-based; conditions: 7-day period, media containing 5% FBS, various doses, DMSO negative control
Text: FIG. 3 illustrates proliferation of the CXCR5-expressing Burkitt's B-cell lymphoma cell line (Raji cell line) over a 7-day period in the media containing 5% FBS in the presence of various doses of Compound 2 or Compound 3 (1-(2-isobutyl-3-methylbenzamido)-2,3-dihydro-1H-indene-1-carboxylic acid). […] DMSO is shown as a negative control.
At this time a Tfh or AITL cell line has not been developed. Thus, a B-cell lymphoma cell line (Raji) was used to determine whether the contemplated compounds can inhibit proliferation. In this experiment, Compound 2 was compared to analogue Compound 3 over a 7-day period (FIG. 3).

[3] = In vivo PK, oral doses of 10, 30 and 60 mg/kg; set-up: species or system female CB.17 SCID mice; conditions: oral 10, 30 and 60 mg/kg
Method: FIG. 5 illustrates in vivo PK results for multiple doses of Compound 2 administered orally. 9 female CB.17 SCID mice per group were used except for vehicle control group, where 15 mice were tested. Three drug doses were used (10, 30 and 60 mg/kg), with dosing volume of 10 mL/kg (0.200 mL/20 g mouse) for each dose. Volume was adjusted for body weight, and analysis was run at 6 different time points.
(§2) For suitability of murine AITL patient derived xenografts (PDX) studies, pharmacokinetics (PK) of Compound 2 were determined by IV, oral, and IP administration (FIG. 4). These parameters provided confidence for oral administration studies at different doses and are suitable for further PK studies at 24-hour measurement at different oral doses. The study allowed one to determine the dose that results in a blood level of ˜IC80.

[4] = In vivo PK, single dose by IV, PO or IP route
Method: Three groups of 30 mice (male, CD-1) were dosed via one route per group (PO, IP, or IV). Single dose level was used per route of administration. Dosing level (mg/kg): IV (1 mg/kg); PO (10 mg/kg); and IP (10 mg/kg). […] Blood collections were terminal for each mouse, so triplicate data was obtained for each time point.

[5] = Preliminary toxicity/tolerability study, 40 mg/kg BID by oral gavage; assay type: in vivo, NSG mice
Method: FIG. 8 illustrates absolute body weight for mice treated with Compound 2, 40 mg/kg BID. 5 NSG mice (highly immunodeficient, same strain as in the in vivo efficacy study) were tested. Compound 2 was administered via oral gavage, BID (twice a day) for 14 days. […] Body weight was monitored daily. Mean body weight loss was <4%, confirming tolerability.
It was decided that a dose of 40 mg/kg would be used in the AITL PDX studies (design outlined in FIG. 6). Prior to the study, preliminary 1-week toxicity studies were performed on the NSG immunocompromised mice (NOD/SCID, IL-2R knockout) that would be used on the AITL PDX study (FIG. 8).

murine CXCR5 = molecular target: T2, murine CXCR5 (Mus musculus, UniProt Q04683); experiment: Binding to murine CXCR5
T2 sequence (Q04683 1-374): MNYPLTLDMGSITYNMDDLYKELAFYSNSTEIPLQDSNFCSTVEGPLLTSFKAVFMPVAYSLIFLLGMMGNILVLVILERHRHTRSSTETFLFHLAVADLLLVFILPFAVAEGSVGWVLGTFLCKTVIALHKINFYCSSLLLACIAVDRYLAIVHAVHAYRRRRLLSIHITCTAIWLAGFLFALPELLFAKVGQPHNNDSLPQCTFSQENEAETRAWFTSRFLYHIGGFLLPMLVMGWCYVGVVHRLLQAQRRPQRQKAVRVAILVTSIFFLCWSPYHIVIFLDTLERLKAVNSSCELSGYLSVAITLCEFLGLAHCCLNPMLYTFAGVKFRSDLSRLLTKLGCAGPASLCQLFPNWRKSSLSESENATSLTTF

[6] = 10-day oral dosing PK/tolerability study, 30 mg/kg every 12 hours; assay type: in vivo, female CB.17 SCID mice
Method: FIG. 6 illustrates a dosing scheme for oral administration of Compound 2 over 10 days. Female CB.17 SCID mice were dosed according to the table shown: Groups 1-2 were treated with the drug and Group 3 animals were treated with vehicle control. Mice were orally dosed at 30 mg/kg every 12 hours for 10 days. Group 2 (18 animals total, alternating animals) were used for PK blood analysis, and Group 1 (5 animals total) were sacrificed at end point for gross necropsy.
FIGS. 7A-7B illustrate in vivo PK results for multiple doses of Compound 2 (30 mg/kg) administered orally over 10 days. […] No change in slope of decrease indicated no change in rate of metabolism.
as §2

human CXCR5 [7] = molecular target: T1, human CXCR5; experiment: Binding to human CXCR5
[8] = tested on: patient-derived AITL tissue; experiment: In vivo efficacy in AITL patient-derived xenograft (human CD45+ cells)
Method: FIGS. 9A-9B illustrate CD45 levels in bone marrow (FIG. 9A) and peripheral blood (FIG. 9B) of mice treated with Compound 2 or vehicle. […] (NOD/SCID, IL-2R knockout) mice (8 animals per group) were implanted with patient-derived AITL tissue. Compound 2 binds to human but not to murine CXCR5. Animals were treated with vehicle or 40 mg/kg Compound 2 via oral gavage 2×/day. t test comparing all mice at the time of sacrifice was performed to analyze the data. Error bars—SEM.
For in vivo efficacy study, mice were implanted with AITL PDX and engraftment levels were quantified in each animal as circulating human CD45+ cells levels in blood. Dosing began when average engraftment reached 0.13%, and the cohort was treated for 42 days. The mice were monitored weekly for weight loss and daily for any clinical mortality observation. Only 1 treated mouse lost weight (14%) during the first week but gained it back and was otherwise stable similar to the other mice. Blood was drawn at 0, 14, and 28 days after the dosing started, and before euthanasia to measure tumor burden. […] When mice were sacrificed, various organs were removed and stored at −80° C. At the end of the study (42 days of dosing), 3 and 5 mice treated with vehicle or Compound 2, respectively, were still alive. […] The absolute percentage in the blood was 44.5% and 57.6% for treated and untreated mice, respectively.
PDX was implanted into immunocompromised NSG mice.
Starting at around 21 days after implantation, animals are examined for engraftment every 1-2 weeks. Engraftment is determined by measuring human CD45+ cells in blood (flow cytometry).
After engraftment is observed, animals are dosed by oral gavage every 10-14 hours with vehicle (untreated groups) or with compound YU241279 at 40 mg/kg (treated groups).
Animals are evaluated for general health daily and weighed twice per week; circulating human CD45+ cells are measured on days 14 and 28 after treatment initiation to evaluate tumor progression. Based on day 28 analysis, treatment may be extended (the decision to extend the dosing is based on the health status of the vehicle group: CD45 (<50%), lack of morbidity by day 28); Readouts at conclusion of the study include spleen weight, survival, and flow cytometry assessment for human CD45+ cells in blood and bone marrow.

[9] = 40 mg/kg oral gavage BID for 14 days, 5 NSG mice
[10] = 40 mg/ml (so in the source), NSG mice
[11] = at death, 40 mg/kg oral, treated mice

## CC(C)=Cc1c(C)cccc1C(=O)NC1(C(=O)O)Cc2ccccc2C1 [Compound 1, 2-(3-methyl-2-(2-methylprop-1-en-1-yl)benzamido)-2,3-dihydro-1H-indene-2-carboxylic acid]
Human CXCR5 [1]
  activity in calcium assay (inhibition of Gaq-mediated Ca2+ flux): sub-micromolar
Human CXCR5 [2]
  activity in cyclic AMP assay (inhibition of decrease of cAMP): sub-micromolar

## Cc1cccc(C(=O)NC2(C(=O)O)CCc3ccccc32)c1CC(C)C (stereo not shown) [Compound 3, 1-(2-isobutyl-3-methylbenzamido)-2,3-dihydro-1H-indene-1-carboxylic acid]
Raji cell line
  proliferation of Raji cells: less potent than Compound 2

## Cc1cccc(C(=O)NC2(C(=O)O)Cc3ccccc3C2)c1CC(C)C [Compound 2, 2-(2-isobutyl-3-methylbenzamido)-2,3-dihydro-1H-indene-2-carboxylic acid]
[3]
  compound blood level versus compound amount administered: clear increase in compound blood level versus compound amount administered
[4]; IV arm subsequently dosed at 0.2 mg/mL delivered at 5 mL/kg
  clinical observations: without any adverse observations
[4]; original IV group, single dose
  clinical observations: labored breathing, decreased activity, and death
[4]; pharmacokinetic study in mice
  bioavailability: confirmed bioavailability
[5]; [9]
  mean body weight loss: < 4%
  morbidity: No morbidity was observed
[5]; [10]
  body weight gain compared with vehicle: did not gain weight as fast as the mice treated with vehicle
  other abnormalities: no other abnormalities observed
Murine CXCR5
  binding to murine CXCR5: not
[6]; 10-day study at 30 mg/kg oral
  tolerability: demonstrated tolerability
[6]; oral 30 mg/kg every 12 hours for 10 days, during dosing and for 2 weeks following
  health of animals: good health
[6]; oral 30 mg/kg every 12 hours, 10 days, first two doses versus 20th dose, 30 mg/kg
  change of compound metabolism over dosing period: compound metabolism was unchanged; also recorded: no change metabolism
[6]; oral 30 mg/kg, 12 hours between doses
  blood levels relative to IC50 between doses: remained above IC50 for full 12 hours
Raji cell line
  proliferation of Raji cells: dose-dependent decrease in proliferation; also recorded: clearly inhibited proliferation
Human CXCR5 [1]
  activity in calcium assay (inhibition of Gaq-mediated Ca2+ flux): sub-micromolar
Human CXCR5 [7]
  binding to human CXCR5: binds
[8]; 40 mg/kg oral gavage 2x/day, at time of sacrifice
  tumor loads in peripheral blood and bone marrow compared to vehicle control: Significantly reduced tumor loads
[8]; 42 days of dosing, 8 animals per group
  mice still alive at the end of the study: 5
[8]; [11]
  absolute percentage of human CD45+ in the blood: 44.5%
  absolute percentage of human CD45+ in the bone marrow: 10.6%
[8]; first week of dosing, 1 treated mouse, regained afterwards
  weight loss of the only treated mouse that lost weight: 14%
Human CXCR5 [2]
  activity in cyclic AMP assay (inhibition of decrease of cAMP): sub-micromolar
